{
  "source": "patent US10723777B2",
  "about": "“Peptide having anti-obesity and anti-diabetes efficacy and use thereof” (CAREGEN CO., LTD., priority 2016, dated 2020)",
  "key": {"[1]": {"tested_on": "pre-adipocytes 3T3-L1 cells", "experiment": "Inhibition of fat accumulation using pre-adipocyte (Oil Red O staining)", "format": "cell-based, mouse", "details": "3T3-L1, differentiation induced 10 days, various concentrations", "protocol": "The pre-adipocytes 3T3-L1 cells were incubated until becoming confluent, and then incubated for two days after treatment with various concentrations of the peptides in a differentiation medium containing 10 μg/ml insulin, 0.1 μM dexamethasone, and 0.5 μM IBMX. Thereafter, the medium was exchanged every two days to a medium containing 10 μg/ml insulin. After differentiation was induced for 10 days, the generation of droplet in the cells was confirmed by Oil Red 0 staining.\nThe prepared 3T3-L1 pre-adipocytes were washed with PBS, fixed with 3.7% formalin for 1 hour, were washed with 60% isopropanol, and then were dyed with Oil Red O solution at room temperature for 20 minutes. After completion of dyeing, the Oil Red O solution was removed, the cells were washed three times with distilled water, and then the dyed cells were observed under a phase contrast microscope. For quantitative analysis, fats were extracted from the cells using 100% isopropanol, and the cells were transferred in an amount of 200 μl/well into 96-well plates and measured for optical density at 500 nm using an ELISA reader."}, "[2]": {"tested_on": "DB/DB diabetes-induced mice", "experiment": "Blood sugar levels over time in DB/DB diabetes-induced mice administered with the peptides", "format": "in vivo, mouse", "details": "for blood sugar levels: High-Fat Diabetes DB/DB mice; for blood sugar levels (course over time): DB/DB mice", "protocol": "In addition, after starvation for 16 hours, DB/DB diabetes-induced mice were fed for 30 minutes and then administered with the peptides. Blood sugar levels were measured over times and the results are shown in FIGS. 22 and 23 and Tables 7 and 8."}, "[3]": {"tested_on": "adipogenic markers (PPARγ, ACC, and aP2) in 3T3-L1 cells", "experiment": "Suppression of expression of genes involved in adipogenesis (RT-PCR)", "format": "cell-based, mouse", "details": "TNFα 100 ng/ml; for expression levels of the adipogenic marker aP2 (gene): peptides/peptide complexes 0.1, 1, 10 μg/ml", "protocol": "3T3-L1 cells (pre-adipocytes) were seeded at a density of 3×10^5 cells/well into 6-well plates. After incubating for 24 hours, the cells were incubated for 14 days in a 37° C. incubator after treatment with various concentrations (0.1, 1, and 10 μg/ml) of the peptides. Thereafter, the cells were harvested and treated with an RNA extraction solution (Easy Blue, Intron) to prepare for RNA from which cDNA was then synthesized using an RT premix (Intron). PCR was performed using primers for the adipogenic markers (PPARγ, ACC, and aP2), and a PCR premix (Intron). Next, the PCR products were each loaded in an amount of 5 μl into a 1% agarose gel and electrophoresis was performed, and then bands were identified in a Gel-Doc.\nTarget-specific primer sequences for PCR of adipogenic markers are as follows: […]"}, "[4]": {"tested_on": "DIO C57BL/6 mouse fed high-fat diet", "experiment": "Adipogenesis-suppressive and lipolysis-promotive effect in DIO (diets induced obesity) mice", "format": "in vivo", "details": "micro-CT; HDF (10 weeks) + treatment (8 weeks)"}, "[5]": {"tested_on": "DIO C57BL/6 mouse fed high-fat diet", "experiment": "Adipogenesis-suppressive and lipolysis-promotive effect in DIO (diets induced obesity) mice", "format": "in vivo", "protocol": "Obesity-induced Models DIO (diets induced obesity), which had become obese by feeding high-fat diets to normal C57BL/6 mouse, were used for the anti-obesity experiment in which 5 μg/ml of TNFα was used as a positive control drug. For a control, a general diet, not a high-fat diet, was fed. In this experiment, a high-fat diet was fed for 12 weeks, while the peptide complexes or the positive control drug were applied. During the experiment, the weight loss was confirmed.\nTNFα and the anti-obesity active compounds were intraperitoneally injected at 3:00 to 4:00 pm every week for 12 weeks. Body weights and dietary amounts were measured just before the first drug injection, and then measured at weekly intervals.\nBlood samples were collected from the tail vein after the end of the drug injection experiment, and then blood sugar levels were measured using Accu-Check Active (Roche) and cholesterol levels were analyzed using Cholesterol calculation Kit (BioVision).\nAdipose tissues are classified into white fat and brown fat depending on the color and are classified into subcutaneous fat, abdominal fat, mesentery fat (visceral fat), and epididymal fat depending on the site. After dissection, each fat was extracted. For histological examination, the fats were fixed with 10% neutral buffered formalin, embedded in paraffin blocks, cut into […] sections, and dyed with hematoxylin and eosin.\nTo analyze the degree of phosphorylation of the lipolytic factor HSL, fluorescent staining was carried out using an anti-pHSL antibody. The tissue samples were prepared, mounted on glycerine jell mounting media, and covered with a cover glass. The tissues were taken with a digital camera built into a microscope (Nikon, TS100) and images were observed under the microscope."}, "[6]": {"details": "peptide complexes 0.1, 1, 10 μg/ml"}},
  "data": [
    {"substance": "ACYLPHPWFC (Peptide 4) [SEQ ID NO: 4]", "values": [
      {"measurement": "degree of fat accumulation in the cells (Oil Red O staining)", "setting": "[1]", "value": "decreased"},
      {"measurement": "blood sugar levels", "setting": "[2]; 30 minutes", "value": 249, "unit": "mg/dL"},
      {"measurement": "blood sugar levels", "setting": "[2]; 60 minutes", "value": 229, "unit": "mg/dL"},
      {"measurement": "blood sugar levels", "setting": "[2]; 120 minutes", "value": 215, "unit": "mg/dL"},
      {"measurement": "blood sugar levels", "setting": "[2]; 240 minutes", "value": 180, "unit": "mg/dL"},
      {"measurement": "blood sugar levels", "setting": "[2]; 300 minutes", "value": 165, "unit": "mg/dL"},
      {"measurement": "blood sugar levels (course over time)", "setting": "[2]", "value": "lowered in a time-dependent manner"},
      {"measurement": "blood sugar levels", "setting": "[2]; Fasting", "value": 222, "unit": "mg/dL"},
      {"measurement": "expression levels of the adipogenic marker aP2 (gene)", "setting": "[3]", "value": "decreased"}
    ]},
    {"substance": "KGACTGWMA (Peptide 2) [SEQ ID NO: 2]", "values": [
      {"measurement": "degree of fat accumulation in the cells (Oil Red O staining)", "setting": "[1]", "value": "decreased"},
      {"measurement": "blood sugar levels", "setting": "[2]; 30 minutes", "value": 219, "unit": "mg/dL"},
      {"measurement": "blood sugar levels", "setting": "[2]; 60 minutes", "value": 231, "unit": "mg/dL"},
      {"measurement": "blood sugar levels", "setting": "[2]; 120 minutes", "value": 174, "unit": "mg/dL"},
      {"measurement": "blood sugar levels", "setting": "[2]; 240 minutes", "value": 158, "unit": "mg/dL"},
      {"measurement": "blood sugar levels", "setting": "[2]; 300 minutes", "value": 152, "unit": "mg/dL"},
      {"measurement": "blood sugar levels (course over time)", "setting": "[2]", "value": "lowered in a time-dependent manner"},
      {"measurement": "blood sugar levels", "setting": "[2]; Fasting", "value": 181, "unit": "mg/dL"},
      {"measurement": "expression levels of the adipogenic marker aP2 (gene)", "setting": "[3]", "value": "decreased"}
    ]},
    {"substance": "TNFα", "values": [
      {"measurement": "expression levels of the adipogenic marker ACC (gene)", "setting": "[3]; [6]", "value": "decreased"},
      {"measurement": "expression levels of the adipogenic marker PPARγ (gene)", "setting": "[3]; [6]", "value": "decreased"},
      {"measurement": "expression levels of the adipogenic marker aP2 (gene)", "setting": "[3]", "value": "decreased"},
      {"measurement": "Total Fat", "setting": "[4]", "value": 4165.80, "unit": "mm^3"},
      {"measurement": "Total Volume", "setting": "[4]", "value": 8240.67, "unit": "mm^3"},
      {"measurement": "Visceral Fat", "setting": "[4]", "value": 2833.72, "unit": "mm^3"},
      {"measurement": "body weight", "setting": "[5]; Week 0, high-fat diet", "value": 22.41, "unit": "g"},
      {"measurement": "body weight in percentage", "setting": "[5]; Week 0, high-fat diet", "value": 100, "unit": "%"},
      {"measurement": "body weight", "setting": "[5]; Week 1, high-fat diet", "value": 23.00, "unit": "g"},
      {"measurement": "body weight in percentage", "setting": "[5]; Week 1, high-fat diet", "value": 102.6, "unit": "%"},
      {"measurement": "body weight", "setting": "[5]; Week 2, high-fat diet", "value": 26.12, "unit": "g"},
      {"measurement": "body weight in percentage", "setting": "[5]; Week 2, high-fat diet", "value": 116.6, "unit": "%"},
      {"measurement": "body weight", "setting": "[5]; Week 3, high-fat diet", "value": 27.45, "unit": "g"},
      {"measurement": "body weight in percentage", "setting": "[5]; Week 3, high-fat diet", "value": 122.5, "unit": "%"},
      {"measurement": "body weight", "setting": "[5]; Week 4, high-fat diet", "value": 30.51, "unit": "g"},
      {"measurement": "body weight in percentage", "setting": "[5]; Week 4, high-fat diet", "value": 136.1, "unit": "%"},
      {"measurement": "body weight", "setting": "[5]; Week 5, high-fat diet", "value": 32.76, "unit": "g"},
      {"measurement": "body weight in percentage", "setting": "[5]; Week 5, high-fat diet", "value": 146.2, "unit": "%"},
      {"measurement": "body weight", "setting": "[5]; Week 6, high-fat diet", "value": 33.49, "unit": "g"},
      {"measurement": "body weight in percentage", "setting": "[5]; Week 6, high-fat diet", "value": 149.4, "unit": "%"},
      {"measurement": "body weight", "setting": "[5]; Week 7, high-fat diet", "value": 35.14, "unit": "g"},
      {"measurement": "body weight in percentage", "setting": "[5]; Week 7, high-fat diet", "value": 156.8, "unit": "%"},
      {"measurement": "body weight", "setting": "[5]; Week 8, high-fat diet", "value": 37.15, "unit": "g"},
      {"measurement": "body weight in percentage", "setting": "[5]; Week 8, high-fat diet", "value": 165.8, "unit": "%"},
      {"measurement": "body weight", "setting": "[5]; Week 9, high-fat diet", "value": 38.97, "unit": "g"},
      {"measurement": "body weight in percentage", "setting": "[5]; Week 9, high-fat diet", "value": 173.9, "unit": "%"},
      {"measurement": "body weight", "setting": "[5]; Week 10, high-fat diet", "value": 40.39, "unit": "g"},
      {"measurement": "body weight in percentage", "setting": "[5]; Week 10, high-fat diet", "value": 180.2, "unit": "%"},
      {"measurement": "body weight", "setting": "[5]; Week 11, high-fat diet", "value": 41.35, "unit": "g"},
      {"measurement": "body weight in percentage", "setting": "[5]; Week 11, high-fat diet", "value": 184.5, "unit": "%"},
      {"measurement": "body weight", "setting": "[5]; Week 12, high-fat diet", "value": 43.91, "unit": "g"},
      {"measurement": "body weight in percentage", "setting": "[5]; Week 12, high-fat diet", "value": 195.9, "unit": "%"},
      {"measurement": "Subcutaneous Fat", "setting": "[5]; micro-CT, HDF (10 weeks) + treatment (8 weeks)", "value": 1332.08, "unit": "mm^3"}
    ]}
  ]
}
